PMC2248166, “Quantitative peptide binding motifs for 19 human and mouse MHC class I molecules derived using positional scanning combinatorial peptide libraries” (Immunome Research, 2008)

Legend:
HLA B*1503 = HLA B*1503 (Homo sapiens, UniProt P01889, A329T/A93T/A95T/C349S/D201E/D98Y/E187L/E204Q/K202T/N87E/Q94N/R155S/R180L/S121R/S35A/V306I/V36M/Y140S/Y91S); experiment: biochemical; assay type: binding
HLA B*5802 = HLA B*5802 (Homo sapiens, UniProt P01889, A329T/C349S/D201E/D98Y/E176V/E187L/E204Q/E69T/G107R/I218V/I90N/K202T/L105A/N104I/N87E/Q89R/Q94S/R106L/R155S/R180L/R86G/S101N/S121W/S35A/S48A/V127L/V306I/V36M/Y140S/Y91M); assay type: binding
HLA B*5801 = HLA B*5801 (Homo sapiens, UniProt P01889, A329T/C349S/D201E/D98Y/E176V/E187L/E204Q/E69T/G107R/I218V/I90N/K202T/L105A/L119I/N104I/N87E/Q89R/Q94S/R106L/R155S/R180L/R86G/S101N/S121R/S35A/S48A/T118I/V127L/V306I/V36M/Y140S/Y91M); assay type: binding
H-2 D^b = H-2 D^b (Mus musculus, UniProt P01899); assay type: binding
HLA B*5301 = HLA B*5301 (Homo sapiens, UniProt P01889, A329T/A93T/A95T/C349S/D201E/D98Y/E176V/E187L/E204Q/E69T/G107R/I218V/K202T/L105A/L119I/N104I/Q94N/R106L/R155S/R180L/S101N/S121R/S35A/S48A/T118I/V127L/V306I/V36M/Y140S/Y91F); assay type: binding
HLA B*5101 = HLA B*5101 (Homo sapiens, UniProt P01889, A329T/A93T/A95T/C349S/D138N/D201E/D98Y/E187L/E204Q/E69T/G107R/I218V/K202T/L105A/L119W/N104I/Q94N/R106L/R155S/R180L/S101N/S121T/S35A/S48A/V306I/V36M/Y195H/Y91F); assay type: binding
H-2 D^d = H-2 D^d (Mus musculus, UniProt P01900); assay type: binding
HLA B*3501 = HLA B*3501 (Homo sapiens, UniProt P01889, A329T/A93T/A95T/C349S/D201E/D98Y/E176V/E187L/E204Q/E69T/I218V/K202T/L119I/Q94N/R155S/R180L/S121R/S35A/S48A/T118I/V127L/V306I/V36M/Y140S/Y91F); assay type: binding
HLA A*6802 = HLA A*6802 (Homo sapiens, UniProt P04439, A269V/D140Y/D185E/E176V/E277Q/E87N/F33Y/G231S/I121R/I166T/I218V/L180W/L300P/L318F/N151K/P208A/P217A/Q86R/R138H/R169H/S129P/T345S/V36M); assay type: binding
H-2 K^k = H-2 K^k (Mus musculus, UniProt P04223); assay type: binding
HLA B*5401 = HLA B*5401 (Homo sapiens, UniProt P01889, A329T/C349S/D138N/D201E/E176V/E187T/E204Q/E69G/I76V/K202T/L119W/R155S/R180L/S121T/S35A/S48A/V127L/V306I/V36M/Y140L); assay type: binding
HLA B*0702 = HLA B*0702 (Homo sapiens, UniProt P01889); assay type: binding; settings: positional scanning combinatorial 9-mer library; normalized to 1.0 for the best residue at each position
HLA A*3001 = HLA A*3001 (Homo sapiens, UniProt P04439, D140H/D185E/E176W/F33S/G80R/H175R/K168Q/R138E/R41S); experiment: biochemical; assay type: binding
HLA B*0801 = HLA B*0801 (Homo sapiens, UniProt P01889, A93T/A95T/D138N/E176V/E187T/K202T/Q94N/R180D/S35A/V36M/Y33D/Y91F); experiment: biochemical; assay type: binding
HLA A*0201 = HLA A*0201 (Homo sapiens, UniProt P04439, D140Y/D185E/D98H/E176V/E277Q/G131W/G231S/I119V/I121R/I166T/I218V/L300P/L318F/N151K/N90K/P208A/P217A/Q86G/Q94H/R138H/R169H/T345S); settings: positional scanning combinatorial 9-mer library; normalized to 1.0 for the best residue at each position
HLA A*3201 = HLA A*3201 (Homo sapiens, UniProt P04439, A270S/D101S/D185E/E176V/E277Q/F133L/G103R/G107R/G231S/H175R/I121M/I218V/I322F/K168Q/L105A/L300P/L318F/M331R/P208A/P217A/Q94H/R106L/R138Q/S129P/T104I/T323A/T345S/V100E/V321M/V358M); experiment: biochemical; assay type: binding
HLA B*1501 = HLA B*1501 (Homo sapiens, UniProt P01889, A329T/A93T/A95T/C349S/D201E/D98Y/E187L/E204Q/E69M/E70A/K202T/N87E/Q94N/R155S/R180W/S121R/S35A/S48A/V306I/V36M/Y140S/Y91S); experiment: biochemical; assay type: binding
HLA B*2705 = HLA B*2705 (Homo sapiens, UniProt P01889, D138H/D201E/E176V/E204Q/G107R/H137Y/K202T/N104T/N87E/Q56L/Q94K/R106L/R155S/R180L/S101D/S121N/S48T/Y140D/Y33H/Y91C); assay type: binding; settings: positional scanning combinatorial 9-mer library; normalized to 1.0 for the best residue at each position

Sequence of H-2 D^d (P01900 whole entry, looked up): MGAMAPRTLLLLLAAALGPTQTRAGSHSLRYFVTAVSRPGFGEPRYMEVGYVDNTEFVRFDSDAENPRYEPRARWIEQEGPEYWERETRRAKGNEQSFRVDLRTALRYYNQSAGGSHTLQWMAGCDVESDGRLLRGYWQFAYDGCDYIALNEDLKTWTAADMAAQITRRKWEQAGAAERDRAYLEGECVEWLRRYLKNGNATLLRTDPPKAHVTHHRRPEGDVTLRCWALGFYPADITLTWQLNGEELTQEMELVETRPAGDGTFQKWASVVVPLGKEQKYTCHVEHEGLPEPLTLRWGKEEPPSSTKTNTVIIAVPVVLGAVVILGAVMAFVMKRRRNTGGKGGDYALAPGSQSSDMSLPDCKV
Sequence of H-2 D^b (P01887 21-119): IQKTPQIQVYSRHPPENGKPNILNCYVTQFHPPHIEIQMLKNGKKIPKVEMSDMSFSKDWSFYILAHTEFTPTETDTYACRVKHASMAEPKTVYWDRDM
Sequence of H-2 D^b (P01899 25-362): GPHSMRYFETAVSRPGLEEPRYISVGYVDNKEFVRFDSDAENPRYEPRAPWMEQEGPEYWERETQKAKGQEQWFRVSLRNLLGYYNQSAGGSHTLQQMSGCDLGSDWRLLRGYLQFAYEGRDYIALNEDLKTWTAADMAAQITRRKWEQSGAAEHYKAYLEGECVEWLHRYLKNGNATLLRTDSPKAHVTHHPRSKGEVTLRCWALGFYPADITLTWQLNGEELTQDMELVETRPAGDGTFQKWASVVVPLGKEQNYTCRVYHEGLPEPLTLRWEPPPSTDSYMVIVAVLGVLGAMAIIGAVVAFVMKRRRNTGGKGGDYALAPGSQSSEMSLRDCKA
Sequence of H-2 K^k (P01887 21-119): as the sequence (P01887 21-119) above
Sequence of H-2 K^k (P04223 22-369): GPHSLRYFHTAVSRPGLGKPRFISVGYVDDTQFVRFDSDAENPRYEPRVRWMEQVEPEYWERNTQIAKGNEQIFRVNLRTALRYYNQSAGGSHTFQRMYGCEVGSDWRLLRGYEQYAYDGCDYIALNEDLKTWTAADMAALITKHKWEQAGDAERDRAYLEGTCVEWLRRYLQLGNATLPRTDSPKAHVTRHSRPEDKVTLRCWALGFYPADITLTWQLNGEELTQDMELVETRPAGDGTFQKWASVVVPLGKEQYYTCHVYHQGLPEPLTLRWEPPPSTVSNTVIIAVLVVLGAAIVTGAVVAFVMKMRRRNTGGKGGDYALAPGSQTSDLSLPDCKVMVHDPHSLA

Sequence | Normalized average relative binding affinity (ARB), HLA B*1503 (HLA B*1503) | Normalized average relative binding affinity (ARB), HLA B*5802 (HLA B*5802) | Normalized average relative binding affinity (ARB), HLA B*5801 (HLA B*5801) | Normalized average relative binding affinity (ARB), H-2 Db (H-2 D^b) | Normalized average relative binding affinity (ARB), HLA B*5301 (HLA B*5301) | Normalized average relative binding affinity (ARB), HLA B*5101 (HLA B*5101) | Normalized average relative binding affinity (ARB), H-2 Dd (H-2 D^d) | Normalized average relative binding affinity (ARB), HLA B*3501 (HLA B*3501) | Normalized average relative binding affinity (ARB), HLA A*6802 (HLA A*6802) | Normalized average relative binding affinity (ARB), H-2 Kk (H-2 K^k) | Normalized average relative binding affinity (ARB), HLA B*5401 (HLA B*5401) | Normalized average relative binding affinity (ARB), HLA B*0702 (HLA B*0702) | Normalized average relative binding affinity (ARB), HLA A*3001 (HLA A*3001) | Normalized average relative binding affinity (ARB), HLA B*0801 (HLA B*0801) | Normalized average relative binding affinity (ARB), HLA A*0201 (HLA A*0201) | Normalized average relative binding affinity (ARB), HLA A*3201 (HLA A*3201) | Normalized average relative binding affinity (ARB), HLA B*1501 (HLA B*1501) | Normalized average relative binding affinity (ARB), HLA B*2705 (HLA B*2705)
XXEXXXXXX [3064.0044] | 0.044 | 0.049 | 0.095 | 0.032 | 0.031 | 0.070 | 0.0030 | 0.073 | 0.046 | 0.27 | 0.0049 | 0.052 | 0.0031 | 0.034 | 0.037 | 0.14 | 0.040 | 0.071
TXXXXXXXX [3064.0017] | 0.14 | 0.062 | 0.12 | 0.096 | 0.027 | 0.089 | 0.25 | 0.14 | 0.29 | 0.65 | 0.026 | 0.12 | 0.050 | 0.076 | 0.094 | 0.11 | 0.13 | 0.12
EXXXXXXXX [3064.0004] | 0.090 | 0.066 | 0.032 | 0.030 | 0.021 | 0.10 | 0.16 | 0.085 | 1.0 | 0.77 | 0.040 | 0.069 | 0.018 | 0.36 | 0.015 | 0.12 | 0.16 | 0.089
IXXXXXXXX [3064.0008] | 0.51 | 0.17 | 0.35 | 0.13 | 0.15 | 0.23 | 0.39 | 0.30 | 0.076 | 0.27 | 0.27 | 0.42 | 0.11 | 0.068 | 0.12 | 0.47 | 1.0 | 0.22
XHXXXXXXX [3064.0027] | 0.16 | 0.030 | 0.061 | 0.099 | 0.0036 | 0.029 | 0.061 | 0.0078 | 0.0031 | 0.0052 | 0.0014 | 0.0028 | 0.082 | 0.028 | 0.0016 | 0.047 | 0.015 | 0.0065
XXXDXXXXX [3064.0063] | 0.13 | 0.069 | 0.17 | 0.072 | 0.26 | 0.74 | 0.30 | 0.18 | 0.31 | 0.46 | 0.28 | 0.16 | 0.22 | 0.072 | 0.91 | 0.14 | 0.30 | 0.26
